pIC50: −log10 of the molar value.

In test [1] the target is T1, HCK (Homo sapiens, UniProt P08631).
T1 construct: purchased Reaction Biology Europe GmbH
Nature of the test: PanQinase kinase panel: HCK. It is filed as biochemical. Conditions: read-out: INHIBITORY EFFECT @ 1 uM: HCK. As for the experimental part: (§1) Screening procedures were performed in accordance with the company's on-line protocol [accessed on-line Mar.
(§2) For each kinase, the median value of the cpm of three wells was defined as “low control” (n=3). This value reflects unspecific binding of radioactivity to the plate in the absence of a protein kinase but in the presence of the substrate. Additionally, for each kinase the median value of the cpm of three other wells was taken as the “high control,” i.e. full activity in the absence of any inhibitor (n=3). The difference between high and low control of each enzyme was taken as 100% activity.
(§3) As part of the data evaluation the low control of each kinase was subtracted from the high control value as well as from their corresponding “compound values”. The residual activity (in %) for each compound well was calculated by using the following formula: Res. Activity (%)=100×[(signal of compound−low control)/(high control−low control)].

Test [2] addresses T2, FYN (Homo sapiens, UniProt P06241).
T2 construct: purchased Reaction Biology Europe GmbH
Nature of the test: PanQinase kinase panel: FYN. Format: biochemical. Conditions: read-out: INHIBITORY EFFECT @ 1 uM: FYN. Here is the method:
as §1, §2, §3

The subject of test [3] is GBM-U251MG. The experiment in a line: GBM cell proliferation, U251MG (cell-based cancer efficacy assays). Particulars: Homo sapiens, U-251; Table 6B.
In test [4] the target is T3, YES (Homo sapiens, UniProt P07947).
T3 construct: purchased Reaction Biology Europe GmbH
T3 sequence (P07947 whole entry): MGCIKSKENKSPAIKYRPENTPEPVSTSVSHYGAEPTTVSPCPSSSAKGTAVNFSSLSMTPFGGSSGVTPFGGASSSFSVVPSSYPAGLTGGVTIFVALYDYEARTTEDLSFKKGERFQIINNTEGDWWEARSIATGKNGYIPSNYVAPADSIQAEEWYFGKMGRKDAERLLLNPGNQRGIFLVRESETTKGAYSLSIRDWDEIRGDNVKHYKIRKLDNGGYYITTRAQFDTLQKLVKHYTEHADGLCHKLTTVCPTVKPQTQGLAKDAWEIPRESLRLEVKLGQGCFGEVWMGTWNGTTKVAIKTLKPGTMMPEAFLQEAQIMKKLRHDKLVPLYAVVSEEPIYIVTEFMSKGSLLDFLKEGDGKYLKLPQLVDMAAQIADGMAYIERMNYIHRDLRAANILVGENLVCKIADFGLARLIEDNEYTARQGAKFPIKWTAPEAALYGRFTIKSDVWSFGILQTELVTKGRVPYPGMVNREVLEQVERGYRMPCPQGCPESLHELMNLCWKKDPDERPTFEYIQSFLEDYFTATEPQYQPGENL
Nature of the test: PanQinase kinase panel: YES. It is filed as biochemical. Particulars: read-out: INHIBITORY EFFECT @ 1 uM: YES. Here is the method:
as §1, §2
(§4) As part of the data evaluation the low control of each kinase was subtracted from the high control value as well as from their corresponding “compound values”.

The target of test [5] is T4, SRC (Homo sapiens, UniProt P12931).
T4 construct: purchased Reaction Biology Europe GmbH
T4 sequence (P12931 whole entry): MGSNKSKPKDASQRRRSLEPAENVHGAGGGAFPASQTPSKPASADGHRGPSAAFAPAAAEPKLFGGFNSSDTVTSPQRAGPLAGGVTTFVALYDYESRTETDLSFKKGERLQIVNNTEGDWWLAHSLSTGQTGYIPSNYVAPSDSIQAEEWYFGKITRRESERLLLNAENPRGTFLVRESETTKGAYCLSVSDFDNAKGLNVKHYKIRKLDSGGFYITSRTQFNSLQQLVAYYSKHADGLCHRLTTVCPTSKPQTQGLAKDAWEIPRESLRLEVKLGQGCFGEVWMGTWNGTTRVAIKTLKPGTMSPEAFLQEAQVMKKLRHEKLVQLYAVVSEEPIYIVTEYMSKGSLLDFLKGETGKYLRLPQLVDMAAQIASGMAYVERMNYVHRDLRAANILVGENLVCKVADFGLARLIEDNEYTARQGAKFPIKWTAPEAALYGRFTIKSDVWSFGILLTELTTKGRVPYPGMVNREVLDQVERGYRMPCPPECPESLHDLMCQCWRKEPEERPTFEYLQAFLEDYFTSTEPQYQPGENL
The experiment in a line: PanQinase kinase panel: SRC. It is filed as biochemical. Particulars: read-out: INHIBITORY EFFECT @ 1 uM: SRC. As for the experimental part: as §1, §2, §4

T1 sequence (P08631 whole entry): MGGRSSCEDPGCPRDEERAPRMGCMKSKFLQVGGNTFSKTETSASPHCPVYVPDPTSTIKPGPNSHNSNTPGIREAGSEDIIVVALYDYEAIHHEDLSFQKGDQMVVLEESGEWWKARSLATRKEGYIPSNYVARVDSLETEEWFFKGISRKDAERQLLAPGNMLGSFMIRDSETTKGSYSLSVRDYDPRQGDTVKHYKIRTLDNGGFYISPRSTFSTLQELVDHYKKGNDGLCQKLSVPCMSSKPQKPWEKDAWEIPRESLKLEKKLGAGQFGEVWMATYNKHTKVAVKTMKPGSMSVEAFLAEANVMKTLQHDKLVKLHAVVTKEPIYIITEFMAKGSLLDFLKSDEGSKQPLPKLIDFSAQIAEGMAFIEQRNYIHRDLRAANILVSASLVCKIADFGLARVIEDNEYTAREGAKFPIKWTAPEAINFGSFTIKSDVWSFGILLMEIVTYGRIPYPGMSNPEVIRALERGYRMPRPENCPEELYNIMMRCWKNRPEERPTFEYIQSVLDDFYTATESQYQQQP
T2 sequence (P06241 whole entry): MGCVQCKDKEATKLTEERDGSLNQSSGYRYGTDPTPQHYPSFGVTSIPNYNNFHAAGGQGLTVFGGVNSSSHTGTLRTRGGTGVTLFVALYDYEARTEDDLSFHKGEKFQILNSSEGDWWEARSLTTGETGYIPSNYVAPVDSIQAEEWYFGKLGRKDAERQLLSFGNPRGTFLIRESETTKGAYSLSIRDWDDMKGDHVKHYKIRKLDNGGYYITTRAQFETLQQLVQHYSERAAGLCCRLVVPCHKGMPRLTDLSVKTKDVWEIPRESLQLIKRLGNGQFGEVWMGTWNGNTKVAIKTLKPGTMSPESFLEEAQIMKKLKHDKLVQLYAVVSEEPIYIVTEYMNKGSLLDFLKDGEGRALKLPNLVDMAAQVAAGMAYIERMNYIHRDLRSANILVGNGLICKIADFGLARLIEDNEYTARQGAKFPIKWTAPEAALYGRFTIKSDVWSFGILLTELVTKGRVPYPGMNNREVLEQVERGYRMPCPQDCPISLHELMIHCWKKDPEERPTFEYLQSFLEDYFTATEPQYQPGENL

With `O=C(c1ccc(Oc2ccccc2)cc1Cl)c1c[nH]c2ncnc(N[C@@H]3CC[C@@H](CO)OC3)c12` [ARQ-531, (2-chloro-4-phenoxyphenyl) (4-(((3R,6S)-6-(hydroxymethyl)tetrahydro-2H-pyran-3-yl)amino)-7H-pyrrolo[2,3-d]pyrimidin-5-yl) methanone], the inhibition at 1 µM in test [1] is 70 to 89%.
As to `Cc1cccnc1[C@H]1CCC[C@@H](c2ncccc2C)N1CCN1CCN(C(=O)c2ccc(-c3cc4c(-c5cccc(NC(=O)c6ccccc6)c5C)ncnc4[nH]3)cc2)CC1` [Compound I-10, N-(3-(6-(4-(4-(2-((2R,6S)-2,6-bis(3-methylpyridin-2-yl)piperidin-1-yl)ethyl)piperazine-1-carbonyl)phenyl)-7H-pyrrolo[2,3-d]pyrimidin-4-yl)-2-methylphenyl)benzamide], the inhibition at 1 µM in test [2], in test [1], in test [4] and in test [5] was below 50% in each case. This compound also returned an Emax in test [3] of 98%. In test [3], this compound had a negative-log IC50 (pIC50) of 5.67.
In test [3], `Cc1cc(-c2ccnc(Nc3cnn(CCN4[C@@H](c5ncccc5C)CCC[C@H]4c4ncccc4C)c3)n2)ccc1CNC(=O)N1CC(OC(C)C)C1` [Compound I-11] had an Emax of 82% and a negative-log IC50 (pIC50) of 6.03.
On to `COc1ccc(F)cc1C(=O)NCc1ccc(-c2nn([C@@H](C)C(F)(F)F)c(N)c2C(N)=O)cc1` [LOXO-305, pirtobrutinib], for which the inhibition at 1 µM in test [2], in test [1], in test [4] and in test [5] was below 50% in each case.

As usually defined, the pIC50 is the negative decadic logarithm of the IC50, by convention in mol/L. Low values mean a large IC50, high ones a small IC50.
